From ChEMBL document CHEMBL4043281, “Development of a peptide-based inducer of protein degradation targeting NOTCH1” (Bioorg Med Chem Lett, 2017)
The source made the active and inactive calls. No cut-off for these calls is given here. Positions of bridges follow the written chain, without caps; N, C: chain ends. Non-standard residues stand in square brackets, D forms with d. Residues, ends and D or L forms follow the SMILES beside them. Dip = N[C@H](C(=O)O)C(c1ccccc1)c1ccccc1; Chg = N[C@H](C(=O)O)C1CCCCC1; S5 = C=CCCC[C@](C)(N)C(=O)O; NMeA = CN[C@@H](C)C(=O)O; AEEA = NCCOCCOCC(=O)O; βAla = NCCC(=O)O

Assays:
[1] = test system: MOLT-4; assay: Induction of CSL protein degradation in human MOLT4 cells assessed as ratio of CSL to lamin protein level at 80 uM after 6 hrs by Western blot analysis (reference value: 100%); type: functional
[2] = test system: MOLT-4; assay: Induction of CSL protein degradation in human MOLT4 cells assessed as ratio of CSL to lamin protein level at 100 uM after 6 hrs by Western blot analysis (reference value: 100%); type: functional
[3] = species: Homo sapiens; assay: Induction of IAP-mediated NOTCH1 protein degradation in human MOLT4 cells assessed as ratio of NOTCH1 to lamin protein level at 20 uM after 6 hrs by Western blot analysis (reference value: 100%); type: cell-based
[4] = test system: MOLT-4; assay: Induction of CSL protein degradation in human MOLT4 cells assessed as ratio of CSL to lamin protein level at 60 uM after 6 hrs by Western blot analysis (reference value: 100%); type: functional
[5] = species: Homo sapiens; assay: Induction of IAP-mediated NOTCH1 protein degradation in human MOLT4 cells assessed as ratio of NOTCH1 to lamin protein level at 50 uM after 6 hrs by Western blot analysis (reference value: 100%); type: cell-based
[6] = test system: MOLT-4; assay: Induction of CSL protein degradation in human MOLT4 cells assessed as ratio of CSL to lamin protein level at 20 uM after 6 hrs by Western blot analysis (reference value: 100%); type: functional
[7] = species: Homo sapiens; assay: Induction of IAP-mediated NOTCH1 protein degradation in human MOLT4 cells assessed as ratio of NOTCH1 to lamin protein level at 80 uM after 6 hrs by Western blot analysis (reference value: 100%); type: cell-based
[8] = species: Homo sapiens; assay: Induction of IAP-mediated NOTCH1 protein degradation in human MOLT4 cells assessed as ratio of NOTCH1 to lamin protein level at 100 uM after 6 hrs by Western blot analysis (reference value: 100%); type: cell-based
[9] = test system: MOLT-4; assay: Induction of CSL protein degradation in human MOLT4 cells assessed as ratio of CSL to lamin protein level at 70 uM after 6 hrs by Western blot analysis (reference value: 100%); type: functional
[10] = test system: MOLT-4; assay: Induction of CSL protein degradation in human MOLT4 cells assessed as ratio of CSL to lamin protein level at 50 uM after 6 hrs by Western blot analysis (reference value: 100%); type: functional
[11] = species: Homo sapiens; assay: Antagonist activity IAP in human MOLT4 cells assessed as reduction in cIAP1 protein level at 50 to 80 uM after 6 hrs by Western blot analysis; type: cell-based
[12] = test system: MOLT-4; assay: Cytotoxicity against human MOLT4 cells at >100 uM; type: cell-based
[13] = species: Homo sapiens; assay: Induction of IAP-mediated NOTCH1 protein degradation in human MOLT4 cells assessed as ratio of NOTCH1 to lamin protein level at 70 uM after 6 hrs by Western blot analysis (reference value: 100%); type: cell-based
[14] = species: Homo sapiens; assay: Induction of IAP-mediated NOTCH1 protein degradation in human MOLT4 cells assessed as ratio of NOTCH1 to lamin protein level at 60 uM after 6 hrs by Western blot analysis (reference value: 100%); type: cell-based

SMILES	Ratio [1]	Ratio [2]	Ratio [3]	Ratio [4]	Ratio [5]	Ratio [6]	Ratio [7]	Ratio [8]	Ratio [9]	Ratio [10]	inhibition [11]	Activity [12]	Ratio [13]	Ratio [14]
CC[C@H](C)[C@H](NC(=O)[C@H](CCCNC(=N)N)NC(=O)[C@H](CCCNC(=N)N)NC(=O)[C@H](CCCNC(=N)N)NC(=O)[C@H](CC(C)C)NC(=O)[C@H](CCCNC(=N)N)NC(=O)[C@H](CCC(=O)O)NC(=O)CCNC(=O)COCCOCCNC(=O)[C@@H](NC(=O)[C@@H]1CCCN1C(=O)[C@@H](NC(=O)[C@H](C)NC)C1CCCCC1)C(c1ccccc1)c1ccccc1)C(=O)N[C@@]1(C)CCC/C=C\CCC[C@@](C)(C(=O)N[C@@H](CCCNC(=N)N)C(=O)N[C@@H](Cc2cnc[nH]2)C(=O)N[C@@H](Cc2cnc[nH]2)C(=O)N[C@@H](CO)C(=O)N[C@H](C(=O)O)[C@@H](C)O)NC(=O)[C@H](CS)NC(=O)[C@H](CC(C)C)NC1=O (H-[NMeA][Chg]P[Dip][AEEA][βAla]ERLRRRI[S5]LC[S5]RHHST-OH; staple (Z) 14-17)	102%	115%	105%	104%	87 to 99%	105%	77%	74%	115%	105 - 108%	Active	Toxic	99%	106%
CC[C@H](C)[C@H](NC(=O)[C@H](CCCNC(=N)N)NC(=O)[C@H](CCCNC(=N)N)NC(=O)[C@H](CCCNC(=N)N)NC(=O)[C@H](CC(C)C)NC(=O)[C@H](CCCNC(=N)N)NC(=O)[C@H](CCC(=O)O)NC(=O)CCN)C(=O)N[C@@]1(C)CCC/C=C\CCC[C@@](C)(C(=O)N[C@@H](CCCNC(=N)N)C(=O)N[C@@H](Cc2cnc[nH]2)C(=O)N[C@@H](Cc2cnc[nH]2)C(=O)N[C@@H](CO)C(=O)N[C@H](C(=O)O)[C@@H](C)O)NC(=O)[C@H](CS)NC(=O)[C@H](CC(C)C)NC1=O (H-[βAla]ERLRRRI[S5]LC[S5]RHHST-OH; staple (Z) 9-12)	–	93%	101%	–	105%	105%	–	103%	–	94%	–	Toxic	–	–
